# Measurements reported in ChEMBL document CHEMBL1157539, “Thousands of chemical starting points for antimalarial lead identification” (Nature, 2010).
# Tested on: Plasmodium falciparum
# Assay: GSK_TCMDC: Inhibition of Plasmodium falciparum 3D7 in whole erythrocytes, using parasite LDH activity as an index of growth.
# Assay type: functional, organism-based
Structure (SMILES),"XC50 (Plasmodium falciparum, 3D7) [nM]",XC50 [nM]
O=C(CSc1nc(-c2ccccc2Cl)ns1)Nc1cccc(F)c1,1110,
Cc1ccc2c(OCCN3CCC(Cc4cc5c(cc4F)OCC(=O)N5)CC3)cc(F)cc2n1,631,
CC(O)C1CCCCN1C(=O)c1ccc(-c2ccc(-c3nc4cc(F)ccc4[nH]3)cc2)cc1 (stereo not given),435,
Oc1ccc(-c2nc3c4cc(I)ccc4c4ccc(I)cc4c3[nH]2)cc1,972,
Cc1ccc(NC(=O)c2c(C)noc2-c2snnc2C)cc1,1370,
COc1ccc2nccc([C@@H](O)CN3CCC(NC(=O)Cn4nc(-c5ccc(C(F)(F)F)cc5)ccc4=O)CC3)c2c1,737,
NC(=O)c1cccc(Nc2nccc(Nc3ccc4[nH]c(-c5ccccc5)cc4c3)n2)c1,776,
C#CCNCc1ccc(-c2cccc(-c3nc4cccc(C)c4[nH]3)c2)cc1,818,
CN(C)c1cccc2c1nc(-c1ccco1)n2CCNCc1ccccc1,814,
O=C(/C=C/c1cccc2ccccc12)NC1CCC(CN2CCC(c3c[nH]c4ccccc34)CC2)CC1 (stereo not given),666,745
CCCCCN1CCCN(Cc2cccc(NC(=O)c3cc4ccccc4s3)c2)CC1,594,
c1cc(CNC2Cc3ccccc3C2)cc(-c2cnc(N3CCNCC3)nc2)c1,943,
CCn1c(-c2nonc2N)nc2c(-c3cccc(NC(=O)Nc4cccc(OC)c4)c3)ncc(OCCCN)c21,769,
CCOC(=O)c1c[nH]c2c(ccc3ccccc32)c1=O,157,
CC(=NNC(S)=NC(c1ccccc1)c1ccccc1)c1ccccn1,896,
N#Cc1cccc(NC(=O)Nc2ccc(-c3cccc(-c4nc5cc(F)ccc5[nH]4)c3)cc2)c1,275,
CS(=O)(=O)c1ccc(CNCc2ccc(-c3cccc(-c4nc5cc(C(F)(F)F)ccc5[nH]4)c3)cc2)cc1,138,
O=C(C=Cc1ccc(Cl)c(Cl)c1)NCCCCCN1CCC(CCNS(=O)(=O)c2ccc(Br)cc2)CC1,1120,
CN(C)Cc1ccc(O)c(-c2ccc(C(C)(C)C)cc2)n1,1080,
COc1ccc(S(=O)(=O)N2CCCC(C)C2)cc1N1CCN(C(=O)c2ccc([N+](=O)[O-])o2)CC1 (stereo not given),1250,
Oc1ccc(CCCc2cc(Oc3c(I)cc(CCc4ncc[nH]4)cc3I)ccc2O)cc1,873,
O=C(Cc1ccc(F)cc1)NC1CCN(c2ccnc3cc(Cl)ccc23)C1 (stereo not given),484,
CCCCN1C(=O)C2CC(=O)CC(C3CCCCC3)C2C1=O (stereo not given),888,
O=c1ccc2ccc(O)c(O)c2o1 [DAPHNETIN],32.2,
COc1ccc(Cl)cc1-c1nc(C(=O)NCCN2CCCCC2)c(C)s1,938,

Structure (SMILES),"XC50 (Plasmodium falciparum, 3D7) [nM]",XC50 [nM]
FC(F)(F)c1ccc2[nH]c(-c3ccc(-c4cccc(CNCc5ccccc5)c4)cc3)nc2c1,222,
O=C(NCCN1CCC(NC(=O)c2ccc(-c3ccccn3)s2)CC1)c1ccc(Cl)c(Cl)c1,881,
c1ccc2[nH]c(-c3ccc(-c4ccc(CN5CCN(c6ccncc6)CC5)cc4)cc3)nc2c1,164,
COc1ccc(CC2(CO)CCN(Cc3ccc(O)c(Cl)c3)CC2)cc1,859,
COc1ccc2nccc([C@@H](O)CN3CCC(NC(=O)C(c4cccs4)N4CCN(c5ccc(F)cc5)CC4)CC3)c2c1 (stereo not given in full),817,
O=C(Nc1ccc(C(F)(F)F)cc1)N[C@H]1CCN(CCCCCNC(=O)C2CC2c2ccc(Cl)c(Cl)c2)C1 (stereo not given in full),1100,
COc1ccc2nccc([C@@H](O)CN3CCC(NCCNc4cccc(F)c4)CC3)c2c1,176,
Nc1ncc(-c2ccccc2)cc1-c1nc2cc(Cl)c(F)cc2[nH]1,263,
COc1ccc(C2N=C(N)N=C(N)N2c2ccc(Cl)cc2)cc1OC (stereo not given),1000,
COc1cc2nc(N3CCN(C(=O)c4c(Cl)nsc4-c4ccccc4Cl)CC3)nc(N)c2cc1OC,534,
CCc1ccc(Cc2cnc3nc(N)nc(N)c3c2C)cc1,202,
Cn1cccc1C(=O)Nc1cccc(-c2nn3ccccc3c2-c2ccnc(Nc3ccc4c(c3)OCCO4)n2)c1,1350,
COc1ccc(CN2CCN(Cc3cc(Cl)ccc3O)CC2CCO)c(C)c1C (stereo not given),1490,
CCCc1cnc2nc(N)nc(N)c2c1C,1120,
CC(C)CCNC(=O)c1cnc2c(O)cccc2c1Nc1cccc(NC(=O)c2ccc(F)cc2)c1,913,
Cc1cccc2nc(-c3ccc(-c4ccc(CNCCc5ccncc5)cc4)cc3)[nH]c12,208,
C=CC[C@H](NC(=O)c1ccc(NS(=O)(=O)c2ccc3nc(N)[nH]c(=O)c3c2)cc1)C(=O)OCCCC,154,
CC1CCC(C[C@@H](C(=O)N[C@H](C(=O)Nc2nccs2)[C@@H](C)O)[C@H](CCC(F)(F)F)N(O)C=O)CC1 (stereo not given in full),535,
COc1cc(CCNc2nc(NCc3ccccc3-c3ccccc3)nc(N3CCC(N)CC3)n2)ccc1O,817,
CCCCCc1cc(O)c2c(c1)OC(C)(C)CC2C1=CCN(Cc2cnc3ccccc3c2)CC1 (stereo not given),276,
CCNC(=O)NC1CCN(Cc2c(-c3cccs3)nc3ccccc3c2C(=O)N[C@@H](C)C2CCCCC2)CC1,91.3,
N#Cc1ccc(NC2(C(=O)N3CCN(c4cccc(Cl)c4)CC3)CC2)c2ccccc12,1150,
Nc1ncc(-c2ccc(F)c(Cl)c2)c(N)n1,1230,
COc1cccc(NC(=O)Nc2ccc(Nc3nc(C)cc(N(C)C)n3)cc2)c1,169,
CCCc1c(Cl)cc(CNCCCNc2nc3ccncc3[nH]2)cc1Cl,744,

Structure (SMILES),"XC50 (Plasmodium falciparum, 3D7) [nM]",XC50 [nM]
Cc1cc(NC(=O)c2ccc(-c3ccccc3)cc2)no1,1020,
O=C(Cc1ccc[n+]([O-])c1)Nc1cccc(-c2cccc(-c3nc4cc(F)ccc4[nH]3)c2)c1,897,
COc1cccc(C(=O)Nc2sc3c(c2C(N)=O)CCCC3)c1OC,932,
O=C(c1ccc([N+](=O)[O-])o1)N1CCC(c2cn(Cc3cccc(F)c3)c3ccccc23)CC1,637,
CC(=O)Nc1ccc2[nH]cc(C3CCN(CC4CCN(C(=O)/C=C/c5ccc(Cl)c(Cl)c5)CC4)CC3)c2c1,723,
O=C(Cn1c2ccccc2c(=O)c2ccc(Cl)cc21)Nc1ccc(C(F)(F)F)cc1,530,
CCn1ncc2c(NC3CCOCC3)c(CNC(=O)c3ccnn3C)c(C)nc21,533,
Cc1ccc(Nc2nccc(NCC(O)c3cccc(F)c3)n2)cc1 (stereo not given),675,
CN(C)C(=O)C(CC(=O)NCc1ccccc1Cl)N(C)C.CN(C)C(=O)CC(C(=O)NCc1ccccc1Cl)N(C)C (stereo not given),896,
O=C(Nc1ccc(-c2cccc(-c3nc4cc(F)ccc4[nH]3)c2)cc1)Nc1ccc(Cl)c(Cl)c1,647,
Oc1c(C(Nc2nc3ccccc3s2)c2ccc(OC(F)F)cc2)ccc2cccnc12 (stereo not given),571,
CC(C)c1ccc2oc(-c3ccc(NC(=O)c4ccc([N+](=O)[O-])o4)cc3)nc2c1,340,
C#CCOc1ccc(N2C(N)=NC(N)=NC2(C)C)cc1,65.8,
CO/C(=C\C=C\c1cc2cc(Cl)c(Cl)cc2[nH]1)C(=O)NCCCN1CCN(c2cccc(Cl)c2)CC1,730,
CN1CCN(CCCN(Cc2ccc(-c3cccc(CNCc4ccc5c(c4)OCO5)c3)cc2)C(=O)Nc2ccccc2)CC1,183,
Oc1ccc2[nH]c(-c3ccc(OC(F)(F)F)cc3)nc2c1CNC1CCCC1,1750,
CNC(=O)CSc1nnc(-c2ccc(C)cc2)c(-c2ccc(C)cc2)n1,600,
N#Cc1cccc(NC(=O)Nc2cccc(OC3CCN(Cc4ccccc4)CC3)c2)c1,841,
Cc1ccc(CC(C)NCC(O)c2cccc(Br)c2)cc1 (stereo not given),802,
CN(C)CCNC(=O)c1ccc(-c2ccc3c(Nc4ccccc4)c(C(N)=O)cnc3c2)cc1,728,
O=C(NCCc1cccc(Cl)c1Cl)c1cnc(N2CCN(c3ccncc3)CC2)c(Cl)c1,702,
O=C(Nc1ccc(SC(F)(F)F)cc1)Nc1ccnc2ccccc12,746,
CC(ON1C(N)=NC(N)=NC1(C)C)c1ccccc1 (stereo not given),10.9,
CC(C)(C)OC(=O)/C=C(\C(=O)OCc1ccc([N+](=O)[O-])cc1)c1csc(NC(c2ccccc2)(c2ccccc2)c2ccccc2)n1,861,
CC(C)CNC(=O)c1cncc(-c2ccc(CNCCCc3ccccc3)cc2)c1,770,

Structure (SMILES),"XC50 (Plasmodium falciparum, 3D7) [nM]",XC50 [nM]
Cc1c(Cn2ncc(N3CC(C)NC(C)C3)c(Cl)c2=O)cccc1NC(=O)Nc1ccc(-c2ccccc2)cc1 (stereo not given),596,
COc1cc2nccc(Nc3ccc4c(cnn4Cc4cccc(F)c4)c3)c2cc1OC,237,
CC(C)(C)c1cc(/C=C/C(=O)NC2CCC(CN3CCC(c4c[nH]c5ccccc45)CC3)CC2)cc(C(C)(C)C)c1O (stereo not given),705,719
O=C(Nc1ccc(C(F)(F)F)cc1)NC1CCN(c2ccnc3ccccc23)CC1,185,
COc1cc(CNCCCCCCNCc2cc(OC)c(OC)c3ccccc23)c2ccccc2c1OC,235,
O=C(Nc1cccc(-c2nn3ncccc3c2-c2ccnc(Nc3cccc(-c4cnco4)c3)n2)c1)c1c(F)cccc1F,166,
CC(Nc1ccc2c(c1)CCC2)C(=O)Nc1cc(C(F)(F)F)ccc1N1CCOCC1 (stereo not given),85.3,
CCNc1cc(C(=O)N[C@@H](Cc2ccccc2)[C@H](O)CNC2CCC(C(C)(C)C)CC2)cc(N2CCCC2=O)c1 (stereo not given in full),444,
Cc1cc(Nc2ccncc2)n2nc(C)c(-c3ccc(Cl)cc3)c2n1,157,
N#Cc1ccc(N[C@@H](CC2CCCCC2)C(=O)NCc2cc(F)c(F)cc2F)c2ccccc12,946,
CCc1cn2c3c(cc(C(=O)N[C@@H](Cc4ccccc4)[C@H](O)CNCc4ccc(C)cc4)cc13)N(C)S(=O)(=O)CC2,547,
CC(C)(C)c1ccc(CNC(=O)c2ccc(-c3nc4cc(C(C)(C)C)ccc4[nH]3)cc2)cc1,840,
Oc1ccc2[nH]cc(C3=CCN(CCc4ccccc4)CC3)c2c1,313,
Cc1cc(N[C@@H](Cc2ccccc2)C(=O)NCc2cccs2)nc(NCCc2ccc(F)cc2)n1,854,
c1ccc2c(NCCCCCCCNc3ccnc4ccccc34)ccnc2c1,169,
O=C(/C=C/c1ccc(Cl)c(Cl)c1)NCCCCCCN1CCCN(C(=O)Nc2ccc(C(F)(F)F)cc2)CC1,579,
CCC(NC(=O)c1ccccc1NC(=O)c1ccc(C)cc1)C(=O)OC (stereo not given),762,
CN1CCCN(Cc2ccc(-c3ccc(NC(=O)c4cccc(Cl)c4)cc3)cc2)CC1,859,
Cc1ccc(NC(=O)c2ccc(C(=O)NC3CCN(CC4CCCCC4)CC3)cc2)cc1,903,
CCCCCC(C)C(C)c1cc(O)c2c3c(c(=O)oc2c1)CN(Cc1ccccc1)CC3 (stereo not given),605,
O=C(CSc1nccn1C1CCCCC1)Nc1cc(C(F)(F)F)ccc1Cl,402,
CCOC(C(=O)OCC1CCCN1C(C)C)(c1ccccc1)c1ccccc1 (stereo not given),763,
Nc1nccc2ccc(-c3ccncc3)cc12,249,
